Tests used:
[1] = test system: PARP activity; details: various cell lines, hydrogen peroxide, cited from earlier work
[2] = biological target: T1, Human LAG-3 (Homo sapiens, UniProt P18627); test: SPR binding to recombinant soluble human LAG-3
T1 construct: either recombinant soluble or cell-surface-expressed human and cynomolgus monkey (cyno) LAG-3
T1 sequence (P18627 23-450 limits assumed): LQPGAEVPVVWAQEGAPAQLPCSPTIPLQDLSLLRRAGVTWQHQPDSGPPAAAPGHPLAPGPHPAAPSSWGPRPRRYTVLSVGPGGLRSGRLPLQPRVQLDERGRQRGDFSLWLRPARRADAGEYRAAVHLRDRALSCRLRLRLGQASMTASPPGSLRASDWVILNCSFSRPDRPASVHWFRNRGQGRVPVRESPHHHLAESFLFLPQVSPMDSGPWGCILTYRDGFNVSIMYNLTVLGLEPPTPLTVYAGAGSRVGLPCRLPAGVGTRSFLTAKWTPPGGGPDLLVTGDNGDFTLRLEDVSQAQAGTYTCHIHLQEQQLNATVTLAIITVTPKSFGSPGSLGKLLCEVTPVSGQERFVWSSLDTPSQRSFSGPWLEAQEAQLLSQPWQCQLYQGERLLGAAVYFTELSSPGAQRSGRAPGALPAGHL

[3] = test system: Cyno LAG-3; test: SPR binding to recombinant soluble cyno LAG-3; set-up: species or system cynomolgus monkey
[4] = biological target: T2, LAG-3/MHC-II binding (Homo sapiens, UniProt P18627); test: LAG-3 reporter gene assay (LAG-3 Jurkat cells / MHC class II Raji cells, NFAT readout); type: cell-based; details: FIG. 3C
T2 construct: expressed in transfected cells; host or cells: Jurkat cells (NFAT reporter)
T2 sequence (P18627 23-525): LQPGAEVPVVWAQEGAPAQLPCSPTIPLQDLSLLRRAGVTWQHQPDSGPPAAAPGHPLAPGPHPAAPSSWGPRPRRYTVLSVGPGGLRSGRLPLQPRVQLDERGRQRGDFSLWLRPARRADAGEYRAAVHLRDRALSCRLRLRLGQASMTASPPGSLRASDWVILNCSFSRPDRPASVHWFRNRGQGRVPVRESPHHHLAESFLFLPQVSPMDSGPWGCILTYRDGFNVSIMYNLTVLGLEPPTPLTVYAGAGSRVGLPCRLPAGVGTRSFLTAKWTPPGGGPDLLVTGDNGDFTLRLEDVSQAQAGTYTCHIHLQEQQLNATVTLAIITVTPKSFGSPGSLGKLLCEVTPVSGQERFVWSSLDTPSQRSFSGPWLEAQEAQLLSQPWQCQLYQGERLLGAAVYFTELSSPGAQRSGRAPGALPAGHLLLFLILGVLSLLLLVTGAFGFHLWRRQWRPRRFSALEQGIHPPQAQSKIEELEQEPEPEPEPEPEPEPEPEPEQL
Excerpt: Specifically, this example uses Raji cells, which express high levels of endogenous MHC class II.

[5] = test system: primary human CD4+ T cells; test: Mixed lymphocyte reaction (MLR) assay, IL-2 secretion; type: cell-based; details: 48 hours, antibody alone, FIG. 4
Description: This example describes the ability of an exemplary anti-LAG-3 antibody agent to activate primary human T cells in vitro. […] In this MLR assay, primary human CD4+ T cells were mixed with monocyte-derived dendritic cells from a different donor. In these studies, dendritic cells and allogeneic CD4+ T cells were incubated in the presence of an exemplary anti-LAG-3 antibody agent or isotype control for 48 hours, and activation of T cells was determined by measuring the level of interleukin-2 (IL-2) secretion.

[6] = test system: human PBMCs; test: IL-2 release from SEB-stimulated human PBMCs; type: cell-based; details: 100 ng/mL SEB for 3 days, 5 donors, FIG. 5
Description: Specifically human PBMCs (from 5 donors) were stimulated with 100 ng/mL SEB for 3 days and then IL-2 induction was assessed.

[7] = biological target: T3, LAG-3 (Homo sapiens, UniProt P18627); test: Receptor occupancy on patient T cells (direct binding assay, flow cytometry); type: in vivo; details: patients, early time points, FIG. 10C
T3 construct: PBMCs were isolated from fresh whole blood samples from patients; endogenous in cells; host or cells: T cells in PBMCs from patient whole blood
T3 sequence (P18627 23-525): T2 sequence (P18627 23-525)
Excerpt: The saturation binding aliquot was run in parallel as a control to assess the range of the assay.

| Compound | IC90 ([1]; read-out: inhibitory concentration at 90% of control (IC90)) | IC50 [1] | Kassoc [2] | Kdissoc [2] | Kassoc [3] | Kdissoc [3] | disruption of binding of LAG-3 on Jurkat cells to MHC Class II expressing Raji cells [4] | IL-2 production [5] | IL-2 production [6] | receptor occupancy (RO) ([7]; 80 mg dose) | receptor occupancy (RO) ([7]; 240 mg dose) |
| --- | --- | --- | --- | --- | --- | --- | --- | --- | --- | --- | --- |
| NC(=O)c1cccc2cn(-c3ccc([C@@H]4CCCNC4)cc3)nc12 [Niraparib, (3S)-3-[4-{7-(aminocarbonyl)-2H-indazol-2-yl}phenyl]piperidine] | ~50 nM | ~4 nM |  |  |  |  |  |  |  |  |  |
| TSR-033: anti-LAG-3 antibody agent comprising a heavy chain of SEQ ID NO: 21 and a light chain of SEQ ID NO: 22 |  |  | 1.3 × 10^5 (ms)^−1 | 0.00013 s⁻¹ | 1.1 × 10^5 (ms)^−1 | 0.00026 s⁻¹ | potent antagonist | dose-dependently increased IL-2 production | dose-dependently increased IL-2 production | approximately 50% | approaches saturation |

Source: US20240158495A1, “Antibody Agents Directed Against Lymphocyte Activation Gene-3 (LAG-3) and Uses Thereof” (Tesaro, Inc., priority 2017, published 2024)
